Experimental data reported in the supplement of paper PMC10307832.

Assays:
Test in all cases: relative viability (nuclei count vs DMSO), 5 days (fraction); higher = more cells survive
[1] = compound: CN(C)C[C@@H]1CCn2cc(c3ccccc32)C2=C(C(=O)NC2=O)c2cn(c3ccccc23)CCO1 [Ruboxistaurin] + CC(=O)c1c(C)c2cnc(Nc3ccc(N4CCNCC4)cn3)nc2n(C2CCCC2)c1=O [Palbociclib] (partner 0.5 µM)
Method in brief: (§1)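 Lung cancer cell lines, seeded in 1536-well plates, were treated the following day by pin tool with a single drug or with five library-drug doses (not always all listed) in √10 steps on top of a fixed anchor-drug dose. Cells were fixed and nuclei stained in one step after 5 days, and nuclei were counted. Relative viability is the nuclei count for treated wells divided by that for vehicle wells, reported as medians of duplicate plates.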

[2] = compound: CN(C)C[C@@H]1CCn2cc(c3ccccc32)C2=C(C(=O)NC2=O)c2cn(c3ccccc23)CCO1 [Ruboxistaurin] + CC(C)C[C@H](NC(=O)[C@H](Cc1ccccc1)NC(=O)c1cnccn1)B(O)O [Bortezomib] (partner 0.002 µM)
Method in brief: as §1

[3] = compound: CN(C)C[C@@H]1CCn2cc(c3ccccc32)C2=C(C(=O)NC2=O)c2cn(c3ccccc23)CCO1 [Ruboxistaurin] + CS(=O)(=O)CCNCc1ccc(-c2ccc3ncnc(Nc4ccc(OCc5cccc(F)c5)c(Cl)c4)c3c2)o1 [Lapatinib] (partner 2 µM)
Method in brief: as §1

[4] = compound: CN(C)C[C@@H]1CCn2cc(c3ccccc32)C2=C(C(=O)NC2=O)c2cn(c3ccccc23)CCO1 [Ruboxistaurin] + CS(=O)(=O)N1CCN(Cc2cc3nc(-c4cccc5[nH]ncc45)nc(N4CCOCC4)c3s2)CC1 [Pictilisib] (partner 1 µM)
Method in brief: as §1

[5] = compound: CN(C)C[C@@H]1CCn2cc(c3ccccc32)C2=C(C(=O)NC2=O)c2cn(c3ccccc23)CCO1 [Ruboxistaurin] + Nc1nc2[nH]cc(CCc3ccc(C(=O)N[C@@H](CCC(=O)O)C(=O)O)cc3)c2c(=O)[nH]1 [Pemetrexed] (partner 0.2 µM)
Method in brief: as §1

Cell Line | relative viability ([1]; first compound 0.08 µM) | relative viability ([1]; first compound 0.8 µM) | relative viability ([1]; first compound 2.53 µM) | relative viability ([1]; first compound 8 µM) | relative viability ([2]; first compound 0.08 µM) | relative viability ([2]; first compound 0.8 µM) | relative viability ([2]; first compound 2.53 µM) | relative viability ([2]; first compound 8 µM) | relative viability ([3]; first compound 0.08 µM) | relative viability ([3]; first compound 0.8 µM) | relative viability ([3]; first compound 2.53 µM) | relative viability ([3]; first compound 8 µM) | relative viability ([4]; first compound 0.08 µM) | relative viability ([4]; first compound 0.8 µM) | relative viability ([4]; first compound 2.53 µM) | relative viability ([4]; first compound 8 µM) | relative viability ([5]; first compound 0.08 µM) | relative viability ([5]; first compound 0.8 µM) | relative viability ([5]; first compound 2.53 µM) | relative viability ([5]; first compound 8 µM)
LOU-NH91 | 0.536 | 0.518 | 0.52 | 0.571 | 0.475 | 0.473 | 0.443 | 0.457 | 0.785 | 0.72 | 0.851 | 0.698 | 0.554 | 0.494 | 0.526 | 0.502 | 0.398 | 0.405 | 0.407 | 0.434
LU99A | 0.473 | 0.388 | 0.482 | 0.31 | 1.19 | 1.06 | 1.11 | 0.968 | 1.09 | 0.967 | 0.94 | 0.761 | 0.338 | 0.275 | 0.242 | 0.21 | 0.159 | 0.179 | 0.171 | 0.203
LXF-289 | 0.589 | 0.542 | 0.571 | 0.588 | 1.03 | 0.941 | 0.976 | 1.06 | 0.914 | 0.88 | 0.886 | 0.864 | 0.815 | 0.718 | 0.736 | 0.647 | 0.884 | 0.91 | 0.906 | 1.02
NCI-H23 | 0.492 | 0.445 | 0.53 | 0.461 | 1.2 | 0.871 | 1.01 | 0.929 | 1.38 | 0.97 | 1.21 | 0.819 | 0.428 | 0.374 | 0.392 | 0.38 | 0.73 | 0.541 | 0.666 | 0.45
NCI-H322M | 0.492 | 0.47 | 0.454 | 0.384 | 1.2 | 1.16 | 1.16 | 1.28 | 0.589 | 0.54 | 0.543 | 0.543 | 0.553 | 0.484 | 0.432 | 0.385 | 0.646 | 0.528 | 0.596 | 0.47
NCI-H460 | 0.158 | 0.125 | 0.201 | 0.14 | 1.1 | 1.03 | 0.916 | 0.824 | 1.03 | 0.966 | 1.02 | 1.01 | 0.378 | 0.256 | 0.371 | 0.325 | 0.0661 | 0.0571 | 0.0621 | 0.0636
NCI-H520 | 0.236 | 0.222 | 0.246 | 0.185 | 0.856 | 0.66 | 0.806 | 0.423 | 0.904 | 0.772 | 0.867 | 0.864 | 0.324 | 0.264 | 0.236 | 0.208 | 0.666 | 0.506 | 0.532 | 0.494
